According to the kinase profiling compilation of Christmann-Franck et al. (2016):

Tests used:
Experiment in all cases: radiometric filter-binding kinase assay
[1] = molecular target: MAPK12 (human) (UniProt P53778); settings: ATP 5 µM
[2] = molecular target: PI4KB (human) (UniProt Q9UBF8)
[3] = molecular target: GSK3B (human) (UniProt P49841); settings: ATP 5 µM
[4] = molecular target: MKNK2 (human) (UniProt Q9HBH9); settings: ATP 50 µM
[5] = molecular target: CDK2 CCNA2 (human) (UniProt P20248+P24941); settings: ATP 20 µM
[6] = molecular target: PDPK1 (human) (UniProt O15530)
[7] = molecular target: EPHB3 (human) (UniProt P54753); settings: ATP 20 µM
[8] = molecular target: PLK1 (human) (UniProt P53350); settings: ATP 5 µM
[9] = molecular target: MAPKAPK5 (human) (UniProt Q8IW41); settings: ATP 20 µM
[10] = molecular target: IKBKB (human) (UniProt O14920); settings: ATP 5 µM
[11] = molecular target: MAPK15 (human) (UniProt Q8TD08); settings: ATP 5 µM
[12] = molecular target: MAPK3 (human) (UniProt P27361); settings: ATP 5 µM
[13] = molecular target: IKBKE (human) (UniProt Q14164); settings: ATP 50 µM
[14] = test system: SGK1 (human), O00141 [S422D]; settings: ATP 20 µM
[15] = molecular target: PIM2 (human) (UniProt Q9P1W9); settings: ATP 5 µM
[16] = molecular target: MARK3 (human) (UniProt P27448); settings: ATP 5 µM
[17] = molecular target: DYRK1A (human) (UniProt Q13627); settings: ATP 50 µM
[18] = molecular target: STK3 (human) (UniProt Q13188); settings: ATP 20 µM
[19] = molecular target: NEK6 (human) (UniProt Q9HC98); settings: ATP 50 µM
[20] = molecular target: PAK4 (human) (UniProt O96013); settings: ATP 5 µM
[21] = molecular target: CAMKK2 (human) (UniProt Q96RR4); settings: ATP 20 µM
[22] = molecular target: CaMK1 (human) (UniProt Q14012); settings: ATP 50 µM
[23] = molecular target: MAPK8 (human) (UniProt P45983); settings: ATP 20 µM
[24] = molecular target: CSNK2A1 (human) (UniProt P68400); settings: ATP 5 µM
[25] = molecular target: MAP2K1 (human) (UniProt Q02750); settings: ATP 5 µM
[26] = molecular target: MAPK9 (human) (UniProt P45984); settings: ATP 20 µM
[27] = molecular target: SYK (human) (UniProt P43405); settings: ATP 20 µM
[28] = molecular target: MYLK (human) (UniProt Q15746); settings: ATP 50 µM

Chain of MARK3 (human) (P27448 whole entry, looked up): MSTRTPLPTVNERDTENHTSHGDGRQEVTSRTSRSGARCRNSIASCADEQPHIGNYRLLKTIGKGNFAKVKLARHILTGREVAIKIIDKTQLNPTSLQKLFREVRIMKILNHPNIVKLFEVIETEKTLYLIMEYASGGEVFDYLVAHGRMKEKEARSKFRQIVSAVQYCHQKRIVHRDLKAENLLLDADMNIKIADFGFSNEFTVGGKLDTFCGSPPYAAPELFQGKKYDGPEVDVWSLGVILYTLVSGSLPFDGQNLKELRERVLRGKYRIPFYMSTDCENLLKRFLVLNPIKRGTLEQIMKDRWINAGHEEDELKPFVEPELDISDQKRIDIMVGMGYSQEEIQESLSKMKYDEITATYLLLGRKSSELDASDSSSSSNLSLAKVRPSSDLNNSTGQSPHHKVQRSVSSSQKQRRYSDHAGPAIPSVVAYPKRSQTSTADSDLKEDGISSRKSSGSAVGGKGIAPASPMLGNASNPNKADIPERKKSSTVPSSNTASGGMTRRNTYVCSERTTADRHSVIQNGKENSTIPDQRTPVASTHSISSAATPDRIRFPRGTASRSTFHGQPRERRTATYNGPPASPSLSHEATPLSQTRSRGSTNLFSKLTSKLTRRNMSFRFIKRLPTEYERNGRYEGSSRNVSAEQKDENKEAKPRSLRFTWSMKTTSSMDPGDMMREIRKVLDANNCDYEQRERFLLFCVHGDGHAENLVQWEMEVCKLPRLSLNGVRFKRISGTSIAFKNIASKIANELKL
Chain of MAPK9 (human) (P45984 whole entry, looked up): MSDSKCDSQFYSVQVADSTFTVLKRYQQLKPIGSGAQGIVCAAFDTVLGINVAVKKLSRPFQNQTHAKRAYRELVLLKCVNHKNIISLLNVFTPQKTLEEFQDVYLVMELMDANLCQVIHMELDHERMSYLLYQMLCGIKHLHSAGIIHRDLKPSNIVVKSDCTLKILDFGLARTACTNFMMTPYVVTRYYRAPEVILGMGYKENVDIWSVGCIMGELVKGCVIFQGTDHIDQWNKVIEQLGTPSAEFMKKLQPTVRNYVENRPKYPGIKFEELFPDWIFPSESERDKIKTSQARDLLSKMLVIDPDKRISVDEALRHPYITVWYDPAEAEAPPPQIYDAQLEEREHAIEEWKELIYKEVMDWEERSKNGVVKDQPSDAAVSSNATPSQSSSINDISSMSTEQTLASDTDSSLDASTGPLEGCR
Chain of IKBKB (human) (O14920 whole entry, looked up): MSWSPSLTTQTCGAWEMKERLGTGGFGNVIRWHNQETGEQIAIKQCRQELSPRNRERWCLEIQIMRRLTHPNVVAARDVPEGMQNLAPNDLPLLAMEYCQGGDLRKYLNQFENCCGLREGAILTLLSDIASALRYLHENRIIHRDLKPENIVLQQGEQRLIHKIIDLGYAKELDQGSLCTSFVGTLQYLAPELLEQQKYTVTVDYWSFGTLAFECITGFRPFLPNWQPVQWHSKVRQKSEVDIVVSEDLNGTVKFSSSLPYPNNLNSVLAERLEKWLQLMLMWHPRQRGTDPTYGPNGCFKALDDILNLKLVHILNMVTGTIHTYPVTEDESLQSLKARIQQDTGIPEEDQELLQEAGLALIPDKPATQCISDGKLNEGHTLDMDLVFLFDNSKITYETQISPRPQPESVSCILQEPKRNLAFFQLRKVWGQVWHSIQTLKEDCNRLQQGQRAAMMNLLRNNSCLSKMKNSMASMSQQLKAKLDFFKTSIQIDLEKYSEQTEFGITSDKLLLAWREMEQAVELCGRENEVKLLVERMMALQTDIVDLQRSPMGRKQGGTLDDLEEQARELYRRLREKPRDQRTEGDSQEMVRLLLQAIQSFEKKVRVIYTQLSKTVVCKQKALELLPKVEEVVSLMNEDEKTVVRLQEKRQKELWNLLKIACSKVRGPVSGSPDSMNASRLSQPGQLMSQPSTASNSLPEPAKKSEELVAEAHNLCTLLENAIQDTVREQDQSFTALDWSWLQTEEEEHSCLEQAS
Chain of SGK1 (human), O00141 [S422D] (O00141 whole entry S422D, looked up): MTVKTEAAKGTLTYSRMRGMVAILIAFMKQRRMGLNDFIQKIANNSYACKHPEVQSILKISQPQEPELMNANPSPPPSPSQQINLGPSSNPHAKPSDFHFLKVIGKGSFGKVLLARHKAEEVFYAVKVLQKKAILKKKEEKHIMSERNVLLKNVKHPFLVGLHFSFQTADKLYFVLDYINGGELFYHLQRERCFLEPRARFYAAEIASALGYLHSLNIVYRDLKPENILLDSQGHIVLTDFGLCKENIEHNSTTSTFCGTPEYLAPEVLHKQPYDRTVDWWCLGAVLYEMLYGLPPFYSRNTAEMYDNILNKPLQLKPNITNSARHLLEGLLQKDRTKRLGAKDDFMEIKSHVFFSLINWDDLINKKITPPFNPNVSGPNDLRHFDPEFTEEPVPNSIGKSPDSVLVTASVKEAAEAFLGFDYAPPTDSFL
Chain of MAP2K1 (human) (Q02750 whole entry, looked up): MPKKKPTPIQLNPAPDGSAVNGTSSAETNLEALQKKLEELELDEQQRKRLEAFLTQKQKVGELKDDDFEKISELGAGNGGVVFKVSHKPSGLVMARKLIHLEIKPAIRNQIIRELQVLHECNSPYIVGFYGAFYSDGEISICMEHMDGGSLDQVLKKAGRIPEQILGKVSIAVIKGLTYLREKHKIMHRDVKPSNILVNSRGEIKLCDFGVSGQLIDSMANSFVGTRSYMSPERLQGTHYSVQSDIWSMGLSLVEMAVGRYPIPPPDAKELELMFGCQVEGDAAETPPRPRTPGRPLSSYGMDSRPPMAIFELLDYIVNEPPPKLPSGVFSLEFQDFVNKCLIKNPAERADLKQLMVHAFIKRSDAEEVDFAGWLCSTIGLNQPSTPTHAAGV
Chain of STK3 (human) (Q13188 whole entry, looked up): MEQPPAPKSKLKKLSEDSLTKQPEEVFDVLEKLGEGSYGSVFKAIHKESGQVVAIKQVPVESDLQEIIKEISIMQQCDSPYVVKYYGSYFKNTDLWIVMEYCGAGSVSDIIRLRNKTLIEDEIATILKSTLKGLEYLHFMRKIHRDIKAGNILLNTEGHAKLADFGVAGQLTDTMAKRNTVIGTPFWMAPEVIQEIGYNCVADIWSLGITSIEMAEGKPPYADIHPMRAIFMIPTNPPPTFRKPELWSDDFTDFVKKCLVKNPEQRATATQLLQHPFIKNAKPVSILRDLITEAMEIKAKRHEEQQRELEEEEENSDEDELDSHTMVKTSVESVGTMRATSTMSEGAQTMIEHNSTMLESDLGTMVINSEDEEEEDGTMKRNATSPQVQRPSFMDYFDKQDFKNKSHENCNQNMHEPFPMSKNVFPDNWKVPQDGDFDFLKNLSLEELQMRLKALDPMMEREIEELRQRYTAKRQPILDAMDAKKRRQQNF
Chain of GSK3B (human) (P49841 whole entry, looked up): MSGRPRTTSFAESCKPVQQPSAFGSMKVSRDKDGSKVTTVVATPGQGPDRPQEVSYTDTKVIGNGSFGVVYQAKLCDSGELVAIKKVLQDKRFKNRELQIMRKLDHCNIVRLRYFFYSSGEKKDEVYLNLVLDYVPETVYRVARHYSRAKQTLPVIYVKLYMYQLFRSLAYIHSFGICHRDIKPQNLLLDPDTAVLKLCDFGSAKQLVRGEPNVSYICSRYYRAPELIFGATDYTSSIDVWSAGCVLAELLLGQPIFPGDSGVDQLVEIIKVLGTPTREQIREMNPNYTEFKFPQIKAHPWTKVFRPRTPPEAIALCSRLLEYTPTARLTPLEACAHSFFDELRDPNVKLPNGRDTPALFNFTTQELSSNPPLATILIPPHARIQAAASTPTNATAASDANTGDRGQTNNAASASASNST
Chain of MAPKAPK5 (human) (Q8IW41 whole entry, looked up): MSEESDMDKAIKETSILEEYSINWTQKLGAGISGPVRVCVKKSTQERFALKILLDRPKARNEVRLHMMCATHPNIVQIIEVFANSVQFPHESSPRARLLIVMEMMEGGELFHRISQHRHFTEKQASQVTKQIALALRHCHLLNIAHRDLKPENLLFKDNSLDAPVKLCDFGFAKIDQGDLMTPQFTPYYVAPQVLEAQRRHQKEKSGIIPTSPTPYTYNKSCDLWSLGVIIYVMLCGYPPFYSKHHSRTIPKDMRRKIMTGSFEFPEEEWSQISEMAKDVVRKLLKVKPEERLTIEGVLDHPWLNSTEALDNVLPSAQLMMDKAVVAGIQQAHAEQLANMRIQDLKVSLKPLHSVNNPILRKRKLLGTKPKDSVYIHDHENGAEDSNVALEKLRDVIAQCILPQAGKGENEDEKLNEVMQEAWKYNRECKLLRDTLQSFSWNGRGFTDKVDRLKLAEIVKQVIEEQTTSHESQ
Chain of PAK4 (human) (O96013 whole entry, looked up): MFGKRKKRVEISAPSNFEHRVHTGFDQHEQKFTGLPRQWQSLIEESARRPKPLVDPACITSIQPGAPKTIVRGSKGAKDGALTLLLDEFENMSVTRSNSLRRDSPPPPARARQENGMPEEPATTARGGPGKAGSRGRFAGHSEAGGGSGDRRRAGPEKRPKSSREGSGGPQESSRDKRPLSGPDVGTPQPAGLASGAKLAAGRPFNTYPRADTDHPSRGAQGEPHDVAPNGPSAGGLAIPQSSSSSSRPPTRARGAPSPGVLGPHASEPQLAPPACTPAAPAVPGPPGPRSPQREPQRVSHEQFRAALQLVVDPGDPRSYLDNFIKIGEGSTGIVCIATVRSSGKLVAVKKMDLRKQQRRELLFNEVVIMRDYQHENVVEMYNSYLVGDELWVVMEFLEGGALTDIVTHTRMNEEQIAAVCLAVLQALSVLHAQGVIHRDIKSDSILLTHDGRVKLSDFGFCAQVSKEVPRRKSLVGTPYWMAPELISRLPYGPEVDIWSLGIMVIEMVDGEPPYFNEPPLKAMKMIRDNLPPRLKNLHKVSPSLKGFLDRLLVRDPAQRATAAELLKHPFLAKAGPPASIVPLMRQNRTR

residual activity ([1]; compound 0.1 µM): 107% | residual activity ([1]; compound 1.0 µM): 102% | residual activity ([1]; compound 10.0 µM): 103% | residual activity ([2]; compound 1.0 µM): 103% | residual activity ([2]; compound 10.0 µM): 99% | residual activity ([3]; compound 0.1 µM): 87% | residual activity ([3]; compound 1.0 µM): 96% | residual activity ([3]; compound 10.0 µM): 92% | residual activity ([4]; compound 0.1 µM): 92% | residual activity ([4]; compound 1.0 µM): 93% | residual activity ([4]; compound 10.0 µM): 79% | residual activity ([5]; compound 0.1 µM): 102% | residual activity ([5]; compound 1.0 µM): 101% | residual activity ([5]; compound 10.0 µM): 88% | residual activity ([6]; compound 0.1 µM, ATP 20 µM): 90% | residual activity ([6]; compound 0.1 µM, ATP 50 µM): 94% | residual activity ([6]; compound 1.0 µM, ATP 20 µM): 86% | residual activity ([6]; compound 1.0 µM, ATP 50 µM): 83% | residual activity ([6]; compound 10.0 µM, ATP 20 µM): 95% | residual activity ([6]; compound 10.0 µM, ATP 50 µM): 67% | residual activity ([7]; compound 0.1 µM): 132% | residual activity ([7]; compound 1.0 µM): 139% | residual activity ([7]; compound 10.0 µM): 101% | residual activity ([8]; compound 0.1 µM): 98% | residual activity ([8]; compound 1.0 µM): 87% | residual activity ([8]; compound 10.0 µM): 88% | residual activity ([9]; compound 0.1 µM): 114% | residual activity ([9]; compound 1.0 µM): 97% | residual activity ([9]; compound 10.0 µM): 87% | residual activity ([10]; compound 0.1 µM): 195% | residual activity ([10]; compound 1.0 µM): 230% | residual activity ([10]; compound 10.0 µM): 192% | residual activity ([12]; compound 0.1 µM): 93% | residual activity ([12]; compound 1.0 µM): 85% | residual activity ([12]; compound 10.0 µM): 83% | residual activity ([13]; compound 0.1 µM): 103% | residual activity ([13]; compound 1.0 µM): 99% | residual activity ([13]; compound 10.0 µM): 96% | residual activity ([14]; compound 0.1 µM): 106% | residual activity ([14]; compound 1.0 µM): 74% | residual activity ([14]; compound 10.0 µM): 65% | residual activity ([15]; compound 0.1 µM): 90% | residual activity ([15]; compound 1.0 µM): 90% | residual activity ([15]; compound 10.0 µM): 100% | residual activity ([16]; compound 0.1 µM): 94% | residual activity ([16]; compound 1.0 µM): 83% | residual activity ([16]; compound 10.0 µM): 82% | residual activity ([17]; compound 0.1 µM): 99% | residual activity ([17]; compound 1.0 µM): 94% | residual activity ([17]; compound 10.0 µM): 85% | residual activity ([18]; compound 0.1 µM): 95% | residual activity ([18]; compound 1.0 µM): 85% | residual activity ([18]; compound 10.0 µM): 77% | residual activity ([19]; compound 0.1 µM): 88% | residual activity ([19]; compound 1.0 µM): 75% | residual activity ([19]; compound 10.0 µM): 80% | residual activity ([20]; compound 0.1 µM): 93% | residual activity ([20]; compound 1.0 µM): 88% | residual activity ([20]; compound 10.0 µM): 88% | residual activity ([21]; compound 0.1 µM): 99% | residual activity ([21]; compound 1.0 µM): 98% | residual activity ([21]; compound 10.0 µM): 80% | residual activity ([22]; compound 0.1 µM): 106% | residual activity ([22]; compound 1.0 µM): 94% | residual activity ([22]; compound 10.0 µM): 78% | residual activity ([23]; compound 0.1 µM): 111% | residual activity ([23]; compound 1.0 µM): 107% | residual activity ([23]; compound 10.0 µM): 95% | residual activity ([24]; compound 0.1 µM): 96% | residual activity ([24]; compound 1.0 µM): 92% | residual activity ([24]; compound 10.0 µM): 83% | residual activity ([25]; compound 0.1 µM): 117% | residual activity ([25]; compound 1.0 µM): 104% | residual activity ([25]; compound 10.0 µM): 96% | residual activity ([26]; compound 0.1 µM): 92% | residual activity ([26]; compound 1.0 µM): 93% | residual activity ([26]; compound 10.0 µM): 98% | residual activity ([27]; compound 0.1 µM): 121% | residual activity ([27]; compound 1.0 µM): 100% | residual activity ([27]; compound 10.0 µM): 91% | residual activity ([28]; compound 0.1 µM): 95% | residual activity ([28]; compound 1.0 µM): 79% | residual activity ([28]; compound 10.0 µM): 87%
Compound: CCc1cncnc1N1CCN(Cc2nc3cc(C(F)(F)F)ccc3[nH]2)CC1
residual activity ([11]; compound 0.1 µM): 85% | residual activity ([11]; compound 1.0 µM): 83% | residual activity ([11]; compound 10.0 µM): 71%
